Measured values: PubChem BioAssay (NCI)
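Exposure lasted 48 hours, with cells grown in 96-well plates and compounds tested at five concentrations. GI50 is the concentration that inhibits growth by half. At the TGI there is no net growth.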

Columns and labels:
Test in all cases: NCI anticancer screen, dose series, 48 h
MDA-MB-435 = test system: MDA-MB-435
BT-549 breast = test system: BT-549 breast
T-47D breast = test system: T-47D breast
HOP-62 NSCLC = test system: HOP-62 NSCLC
DU-145 prostate = test system: DU-145 prostate
NCI/ADR-RES ovarian = test system: NCI/ADR-RES ovarian
DMS 273 small cell lung = test system: DMS 273 small cell lung
DMS 114 small cell lung = test system: DMS 114 small cell lung
KM20L2 colon = test system: KM20L2 colon
DLD-1 colon = test system: DLD-1 colon
M19-MEL melanoma = test system: M19-MEL melanoma
HOP-18 NSCLC = test system: HOP-18 NSCLC
SNB-78 CNS = test system: SNB-78 CNS

SMILES | GI50 (MDA-MB-435) [µM] | TGI (MDA-MB-435) [µM] | GI50 (BT-549 breast) [µM] | TGI (BT-549 breast) [µM] | GI50 (T-47D breast) [µM] | TGI (T-47D breast) [µM] | GI50 (HOP-62 NSCLC) [µM] | TGI (HOP-62 NSCLC) [µM] | GI50 (DU-145 prostate) [µM] | TGI (DU-145 prostate) [µM] | GI50 (NCI/ADR-RES ovarian) [µM] | TGI (NCI/ADR-RES ovarian) [µM] | TGI (DMS 273 small cell lung) [µM] | TGI (DMS 114 small cell lung) [µM] | TGI (KM20L2 colon) [µM] | TGI (DLD-1 colon) [µM] | TGI (M19-MEL melanoma) [µM] | TGI (HOP-18 NSCLC) [µM] | TGI (SNB-78 CNS) [µM]
O=c1nc2oc3ccc4ccccc4c3cc-2s1 | 0.259 | 0.783 | 4.35 | > 100 | 3.51 | > 100 | 4.7 | > 79 | 11.5 | > 100 | > 100 | > 100 |  |  |  |  |  |  | 
O=C(Nc1ccc(Cl)c(Cl)c1)O/N=C\c1c(Cl)ccc([N+](=O)[O-])c1Cl | 1.9 | 4.43 | 2.57 | 6.42 | 0.778 | 3.54 | 3.07 | 11 | 1.73 | 3.23 | 4.33 | 17.2 |  |  |  |  |  |  | 
COC(=O)C1=C(c2cc(OC)c(OC)c(OC)c2)OC(c2ccc(OC)c(OC)c2)C1 (stereo not drawn) |  |  |  |  |  |  |  | > 100 |  |  |  |  | > 100 | 81.3 | > 100 | > 100 | > 100 | > 100 | 
CCCCN(CCCC)c1ccc(C(=N)c2ccc(N(CCCC)CCCC)cc2)cc1 | 0.642 | 2.21 | 1.42 | 2.89 | 0.353 | 1.39 | 0.748 | 2.11 | 0.651 | 1.79 | 0.479 | 1.67 |  |  |  |  |  |  | 
O=CC1CCCc2ccccc21 (stereo not drawn) |  |  |  |  |  |  |  | > 100 |  |  |  |  | > 100 | > 71.4 | > 100 | > 63.8 | > 100 | > 100 | > 100
COc1cc(C2C(Cl)C(=O)N2NC(=O)c2ccc(N)cc2)ccc1O (stereo not drawn) |  |  |  |  |  |  |  | > 100 |  |  |  |  | > 100 |  | > 100 | > 100 | > 100 |  | > 100
COc1ccc(C(C#N)Cc2cc(OC)c(OC)c(OC)c2)cc1 (stereo not drawn) |  |  |  |  |  |  |  | > 100 |  |  |  |  | > 100 | 63.4 |  | > 100 | > 100 | > 100 | > 100
NC(=O)c1c(NC(=O)c2ccc3c(c2)OCO3)sc2c1CCC(=O)C2 | 3.16 | > 100 | 0.373 | 5.57 | 0.592 | 3.81 | 4.11 | > 100 | 4.5 | > 100 | 2.2 | > 100 |  |  |  |  |  |  | 
Cc1ccccc1NC(=O)C(=O)CC(=O)c1c(C)n([O-])c2ccccc2[n+]1=O |  |  |  |  |  |  |  | > 100 |  |  |  |  | > 100 | > 100 | > 100 | > 100 | > 100 | > 100 | > 100
O=c1c2ccccc2nc(-c2ccccc2)n1NC1OC(CO)C(O)C(O)C1O (stereo not drawn) |  |  |  |  |  |  |  | > 100 |  |  |  |  | > 100 | > 100 | > 100 | > 100 | > 100 | > 100 | > 100
Cc1ccc(C)c(NC(=O)CC/C(=N\NC(=O)c2c(O)ccc3ccccc23)C(C)C(=O)c2ccc(O)cc2)c1 (stereo not drawn) |  |  |  |  |  |  |  | > 100 |  |  |  |  | > 100 |  | 30 | > 100 |  | 83.8 | > 100
